The values that follow come from US10329284B2, “Ester prodrugs of gamma-lactams and their use” (ALLERGAN, INC., priority 2014, dated 2019).

This series can be described thus: Aqueous stability upon storage in aqueous solution, evaluated by HPLC. The format is physicochemical. As for the experimental part: The compound of Formula (IIIa):
[drawing 31] was selected as an exemplary compound for evaluation of aqueous stability. In particular, the aqueous stability of the compound of Formula (Ma) upon storage in aqueous solution at several temperatures for several weeks was evaluated by HPLC using the following conditions: Column: BioWidePore C18 (SUPELCO), 4.6 mm×25 cm, 5 μm Mobile Phase A: 0.1% (V/V) trifluoroacetic acid (TFA) in di-water, 0.8 micron filtered Mobile Phase B: 100% acetonitrile, 0.8 micron filtered Column temp: Ambient Injection volume: 30 μL UV Detection: 214 nm Flow: 1.0 mL/min Run time: 25 minutes Sample diluent: 50% acetonitrile in di-water Gradient condition: See Table 1

As for `CCCCC[C@H](O)c1ccc(N2C(=O)CC[C@@H]2CCCc2ccc(C(=O)OC[C@@H](O)CO)s2)cc1` [Formula (IIIa), (S)-2,3-dihydroxypropyl 5-(3-((S)-1-(4-((S)-1-hydroxyhexyl)phenyl)-5-oxopyrrolidin-2-yl)propyl)thiophene-2-carboxylate], the “% Recovery vs. T0” value is, setting by setting: (storage 25° C., T0) 100.0%; (storage 25° C., Week-1) 100.8%; (storage 25° C., Week-2) 100.4%; (storage 25° C., Week-4) 102.6%; (storage 40° C., T0) 100.0%; (storage 40° C., Week-1) 100.6%. Moreover, the “% Recovery vs. T0” value is, setting by setting: (storage 40° C., Week-2) 99.8%; (storage 40° C., Week-4) 101.8%; (storage 60° C., T0) 100.0%; (storage 60° C., Week-1) 99.0%; (storage 60° C., Week-2) 97.4%; (storage 60° C., Week-4) 96.3%.

With `O=C(OC[C@@H](O)CO)c1ccc(CCC[C@@H]2[C@@H](CCc3cc(Cl)cc(Cl)c3)[C@H](O)C[C@H]2Cl)s1` [Standard], the “% Recovery vs. T0” value reads like this: (storage 25° C., T0) 100.0%; (storage 25° C., Week-1) 100.1%; (storage 25° C., Week-2) 101.0%; (storage 25° C., Week-4) 101.6%; (storage 40° C., T0) 100.0%; (storage 40° C., Week-1) 100.1%. The “% Recovery vs. T0” value reads like this: (storage 40° C., Week-2) 100.1%; (storage 40° C., Week-4) 98.6%; (storage 60° C., T0) 100.0%; (storage 60° C., Week-1) 99.3%; (storage 60° C., Week-2) 97.5%; (storage 60° C., Week-4) 95.6%.
